# Reference: patent US9988373B2, “Nitrogen-containing six-membered cyclic derivatives and pharmaceutical composition comprising the same” (SHIONOGI & CO., LTD., priority 2013, dated 2018)
# Target: T1, human P2X7 receptor (Homo sapiens, UniProt Q99572, R270H)
# T1 construct: expressed in transfected cells
# T1 sequence (Q99572 1-595 R270H): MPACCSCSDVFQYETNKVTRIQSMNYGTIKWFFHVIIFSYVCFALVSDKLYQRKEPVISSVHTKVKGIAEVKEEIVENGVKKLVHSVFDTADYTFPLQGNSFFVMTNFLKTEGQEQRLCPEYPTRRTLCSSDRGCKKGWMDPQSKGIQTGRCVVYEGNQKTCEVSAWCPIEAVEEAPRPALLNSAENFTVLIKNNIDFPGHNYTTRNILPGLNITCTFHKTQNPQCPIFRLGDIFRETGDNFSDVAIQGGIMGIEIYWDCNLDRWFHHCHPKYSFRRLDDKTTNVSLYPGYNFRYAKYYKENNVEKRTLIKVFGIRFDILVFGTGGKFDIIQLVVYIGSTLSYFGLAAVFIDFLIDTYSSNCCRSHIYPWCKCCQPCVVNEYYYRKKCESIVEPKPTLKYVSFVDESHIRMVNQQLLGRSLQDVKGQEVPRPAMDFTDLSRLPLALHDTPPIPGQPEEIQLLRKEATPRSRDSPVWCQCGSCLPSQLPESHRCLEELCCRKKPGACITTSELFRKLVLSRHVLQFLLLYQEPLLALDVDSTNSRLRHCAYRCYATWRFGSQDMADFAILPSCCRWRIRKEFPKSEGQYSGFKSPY
# Assay: Evaluation of a human P2X7 receptor inhibitory activity (Yo-Pro uptake, BzATP stimulation, FLIPR TETRA)
# Type: cell-based
# Settings: antagonistic activity for the human P2X7 receptor, 1321N1 cell transfected with the human P2X7 receptor gene, Yo-Pro fluorescence
# Description: Test Example 1 Evaluation of a Human P2X7 Receptor Inhibitory Activity
# Stably expressing cell line (1321N1 cell transfected with the human P2X7 receptor gene (GenBank accession number NM_002562.5 including T606C and G952A SNP)) was used. The cells were seeded in a 384-well microtiter plate at a concentration of 8000 cells/well and cultured in the medium (10% fetal bovine serum, 25 mM HEPES, 1% penicillin and streptomycin in DMEM) for one day at 37° C. under 5% carbon dioxide atmosphere. After replacing with 20 μL of the HBSS buffer (20 mM HEPES. 55.6 mM D-glucose, 1×HBSS(−), pH 7.4-7.5), 15 μL of 17.3 μM Yo-Pro solution in the HBSS buffer was added. The plate was placed in high-throughput cellular screening system FLIPR TETRA (Molecullar Devices, LLC.) and 15 μL of 130 μM BzATP solution in the HBSS buffer was added. Measurement of fluorescence intensity by FLIPR TETRA was started. After eight minutes, 15 μL of DMSO solutions containing different concentrations of the compound of the present invention as prepared by dilution with the HBSS buffer were dispensed to each well through the built-in automatic dispenser, and the measurement of fluorescence intensity was continued for 20 minutes. The maximum fluorescence intensity without the compound of the present invention is calculated as 0% inhibition and the maximum fluorescence intensity when the reference compound was added is calculated as 100% inhibition. Changing values of fluorescence intensity by the compound of the present invention were calculated by difference between maximum and minimum fluorescence intensity for 20 minutes. Inhibition ratios (%) were calculated from the following equation:
# [formula] IC50 was calculated using logistic approximation.
row,Compound,IC50 [nM]
1,Nc1cn(Cc2ccccc2)c(-c2cccc(C(F)(F)F)c2Cl)nc1=O [II-045],270
2,COC(=O)Nc1cn(Cc2ccccc2)c(-c2cccc(C(F)(F)F)c2Cl)nc1=O [II-053],71
3,Cc1cn(Cc2ccccc2)c(-c2cccc(C(F)(F)F)c2Cl)nc1=O [II-030],210
4,COc1cn(Cc2ccccc2)c(C2=CCC3(CC2)CC3)nc1=O [II-073],630
5,O=c1ccn(Cc2cccc3ccsc23)c(-c2cccc(C(F)(F)F)c2Cl)c1 [Compound I-048],110
6,O=c1ccn(CC2CCCCC2)c(-c2cccc(C(F)(F)F)c2Cl)n1 [II-077],610
7,COc1cn(Cc2ccccc2)c(-c2cccc(Cl)c2Cl)nc1=O [II-056],130
8,COc1cn(CC#N)c(-c2cccc(C(F)(F)F)c2Cl)nc1=O [II-032],1000

# Same assay, conditions: antagonistic activity for the human P2X7 receptor, 1321N1 cell transfected with the human P2X7 receptor gene, Yo-Pro fluorescence, class symbols
row,Compound,IC50 [nM]
1,O=c1ccn(Cc2cccc(Cl)c2)c(-c2cccc(C(F)(F)F)c2Cl)c1 [Compound I-055],100 to 500
2,CC(C)(C)OC(=O)Nc1cn(Cc2ccccc2)c(-c2cccc(C(F)(F)F)c2Cl)nc1=O [II-042],50 to 100
3,CS(=O)(=O)c1ccc(Cn2ccc(=O)cc2-c2cccc(C(F)(F)F)c2Cl)cc1 [Compound I-060],1000 to 10000
4,COc1cn(Cc2ccccc2)c(-c2cnn(Cc3ccccc3)c2)nc1=O [II-070],1000 to 10000
5,O=c1cc(-c2cccc(C(F)(F)F)c2Cl)n(Cc2cccc(F)c2)cc1Br [Compound I-010],100 to 500
6,N#CCNc1cn(Cc2ccccc2)c(-c2cccc(C(F)(F)F)c2Cl)nc1=O [II-043],50 to 100
7,Cc1ccccc1Cn1cc(Br)c(=O)nc1-c1cccc(C(F)(F)F)c1Cl [II-003],< 50
8,N#CCOc1cn(Cc2ccccc2)c(-c2cccc(C(F)(F)F)c2Cl)cc1=O [Compound I-073],< 50
9,O=c1ccn(Cc2ccccc2CS(=O)(=O)c2ccccc2)c(-c2cccc(C(F)(F)F)c2Cl)c1 [Compound I-056],1000 to 10000
10,COc1cn(Cc2cccc(C)c2)c(-c2cccc(C(F)(F)F)c2Cl)nc1=O [II-017],100 to 500
11,COc1cn(Cc2cccnc2)c(-c2cccc(C(F)(F)F)c2Cl)nc1=O [II-009],100 to 500
12,COc1cn(Cc2cccnc2C)c(-c2cccc(C(F)(F)F)c2Cl)nc1=O [II-026],50 to 100
13,COc1cn(Cc2ccccc2Cl)c(-c2cccc(C(F)(F)F)c2Cl)nc1=O [II-095],< 50
14,O=c1ccn(Cc2cccc3cccnc23)c(-c2cccc(C(F)(F)F)c2Cl)c1 [Compound I-044],500 to 1000
15,O=c1ccn(Cc2ccccc2S(=O)(=O)N2CCOCC2)c(-c2cccc(C(F)(F)F)c2Cl)c1 [Compound I-026],1000 to 10000
16,CC(=O)c1cn(Cc2cccc(C#N)c2)c(-c2cccc(C(F)(F)F)c2Cl)cc1=O [Compound I-005],500 to 1000
17,COc1ccccc1Cn1ccc(=O)cc1-c1cccc(C(F)(F)F)c1Cl [Compound I-071],100 to 500
18,CC(C)NC(=O)Nc1cccc(Cn2cc(Br)c(=O)cc2-c2cccc(C(F)(F)F)c2Cl)c1 [Compound I-012],500 to 1000
19,COc1ccccc1Cn1cc(F)c(=O)nc1-c1cccc(C(F)(F)F)c1Cl [II-093],< 50
20,Cc1ccccc1Cn1ccc(=O)cc1-c1cccc(C(F)(F)F)c1Cl [Compound I-018],50 to 100

row,Compound,IC50 [nM]
1,O=c1ccn(Cc2nc(C(F)(F)F)cs2)c(-c2cccc(C(F)(F)F)c2Cl)c1 [Compound I-066],1000 to 10000
2,O=c1ccn(Cc2ccccc2)c(-c2cccc(C(F)(F)F)c2Cl)n1 [II-048],100 to 500
3,N#Cc1cn(Cc2ccc(F)cc2)c(-c2cccc(C(F)(F)F)c2Cl)nc1=O [II-049],50 to 100
4,O=c1ccn(Cc2cccc(Oc3ccccc3)c2)c(-c2cccc(C(F)(F)F)c2Cl)c1 [Compound I-036],500 to 1000
5,O=c1ccn(Cc2ccc(Oc3ccccc3)cc2)c(-c2cccc(C(F)(F)F)c2Cl)c1 [Compound I-070],1000 to 10000
6,COc1ccc(Cn2ccc(=O)cc2-c2cccc(C(F)(F)F)c2Cl)cc1 [Compound I-040],1000 to 10000
7,O=c1ccn(Cc2ccc(OCc3ccccc3)cc2)c(-c2cccc(C(F)(F)F)c2Cl)c1 [Compound I-064],1000 to 10000
8,O=c1ccn(Cc2ccccc2)c(-c2cccc(C(F)(F)F)c2Cl)c1 [Compound I-019],100 to 500
9,COc1ccc(-c2noc(Cn3ccc(=O)cc3-c3cccc(C(F)(F)F)c3Cl)n2)cc1 [Compound I-038],1000 to 10000
10,COc1cn(Cc2cccc(Cl)c2)c(-c2cccc(C(F)(F)F)c2Cl)nc1=O [II-100],50 to 100
11,O=c1ccn(Cc2ccccn2)c(-c2cccc(C(F)(F)F)c2Cl)c1 [Compound I-058],500 to 1000
12,COc1cn(Cc2cccc(C#N)c2)c(-c2cccc(C(F)(F)F)c2Cl)nc1=O [II-013],100 to 500
13,COc1cn(Cc2ccccc2C)c(-c2cccc(-c3ccccc3)c2)nc1=O [II-068],1000 to 10000
14,N#CCn1cc(OCc2ccccc2)c(=O)nc1-c1cccc(C(F)(F)F)c1Cl [II-085],< 50
15,COc1cn(Cc2ccccc2C#N)c(-c2cccc(C(F)(F)F)c2Cl)nc1=O [II-012],100 to 500
16,CN(C)CCOc1cn(Cc2ccccc2)c(-c2cccc(C(F)(F)F)c2Cl)nc1=O [II-028],500 to 1000
17,Cc1cc(Cn2ccc(=O)cc2-c2cccc(C(F)(F)F)c2Cl)on1 [Compound I-068],1000 to 10000
18,NC(=O)c1ccc(Cn2ccc(=O)cc2-c2cccc(C(F)(F)F)c2Cl)cc1 [Compound I-063],1000 to 10000
19,O=c1ccn(Cc2ccccc2-c2ccccc2)c(-c2cccc(C(F)(F)F)c2Cl)c1 [Compound I-039],1000 to 10000
20,COc1cn(Cc2ccccc2)c(-c2cccc(Cl)c2C(F)(F)F)nc1=O [II-083],50 to 100

row,Compound,IC50 [nM]
1,C#CCOc1cn(Cc2ccccc2)c(-c2cccc(C(F)(F)F)c2Cl)nc1=O [II-040],< 50
2,COc1cn(Cc2cccnc2C(F)(F)F)c(-c2cccc(C(F)(F)F)c2Cl)nc1=O [II-094],100 to 500
3,CCOc1cn(Cc2ccccc2)c(-c2cccc(C(F)(F)F)c2Cl)cc1=O [Compound I-072],< 50
4,COc1cccc(Cn2ccc(=O)cc2-c2cccc(C(F)(F)F)c2Cl)c1 [Compound I-057],100 to 500
5,O=c1ccn(Cc2cccc(F)c2)c(-c2cccc(C(F)(F)F)c2Cl)c1 [Compound I-027],500 to 1000
6,O=c1nc(-c2cccc(C(F)(F)F)c2Cl)n(Cc2ccccc2)cc1Oc1ccccc1 [II-080],50 to 100
7,O=c1ccn(Cc2nc3ccccc3s2)c(-c2cccc(C(F)(F)F)c2Cl)c1 [Compound I-042],1000 to 10000
8,O=c1ccn(Cc2cccc(F)c2F)c(-c2cccc(C(F)(F)F)c2Cl)c1 [Compound I-062],500 to 1000
9,N#Cc1cccc(Cn2cc(Cl)c(=O)cc2-c2cccc(C(F)(F)F)c2Cl)c1 [Compound I-013],100 to 500
10,COc1cccc(Cn2cc(OC)c(=O)nc2-c2cccc(C(F)(F)F)c2Cl)c1 [II-086],< 50
11,O=c1ccn(Cc2cccc(-c3cccs3)c2)c(-c2cccc(C(F)(F)F)c2Cl)c1 [Compound I-047],1000 to 10000
12,O=c1ccn(Cc2c(F)cccc2F)c(-c2cccc(C(F)(F)F)c2Cl)c1 [Compound I-054],100 to 500
13,COc1cn(Cc2ccccc2C)c(-c2ccc(-c3ccccc3)cc2)nc1=O [II-067],1000 to 10000
14,Cc1cccc(Cn2ccc(=O)cc2-c2cccc(C(F)(F)F)c2Cl)c1 [Compound I-028],100 to 500
15,O=c1ccn(Cc2cccc(CO)c2)c(-c2cccc(C(F)(F)F)c2Cl)c1 [Compound I-035],100 to 500
16,COc1cn(Cc2ccccc2)c(-c2cccc(Cl)c2C)nc1=O [II-081],500 to 1000
17,CC(C#N)Oc1cn(Cc2ccccc2)c(-c2cccc(C(F)(F)F)c2Cl)nc1=O (centres unmarked) [II-041],< 50
18,COc1cn(Cc2cccc(F)c2)c(-c2cccc(C(F)(F)F)c2Cl)nc1=O [II-006],50 to 100
19,CC(=O)COc1cn(Cc2ccccc2)c(-c2cccc(C(F)(F)F)c2Cl)nc1=O [II-034],50 to 100
20,O=c1nc(-c2cccc(C(F)(F)F)c2Cl)n(Cc2ccccc2)cc1C(F)(F)F [II-036],100 to 500
